Reference: paper PMC4739778 (Experimental hematology, 2011)
Read-outs that look alike come from different tables or passages of the source.

Experiments:
human OCTN2 = target: T1, human OCTN2 (Homo sapiens, UniProt O76082); experiment: Hydroxyurea uptake in HEK293 cells overexpressing hOCTN2; type: cell-based; conditions: percentage of control cells (100%)
T1 sequence (O76082 1-557): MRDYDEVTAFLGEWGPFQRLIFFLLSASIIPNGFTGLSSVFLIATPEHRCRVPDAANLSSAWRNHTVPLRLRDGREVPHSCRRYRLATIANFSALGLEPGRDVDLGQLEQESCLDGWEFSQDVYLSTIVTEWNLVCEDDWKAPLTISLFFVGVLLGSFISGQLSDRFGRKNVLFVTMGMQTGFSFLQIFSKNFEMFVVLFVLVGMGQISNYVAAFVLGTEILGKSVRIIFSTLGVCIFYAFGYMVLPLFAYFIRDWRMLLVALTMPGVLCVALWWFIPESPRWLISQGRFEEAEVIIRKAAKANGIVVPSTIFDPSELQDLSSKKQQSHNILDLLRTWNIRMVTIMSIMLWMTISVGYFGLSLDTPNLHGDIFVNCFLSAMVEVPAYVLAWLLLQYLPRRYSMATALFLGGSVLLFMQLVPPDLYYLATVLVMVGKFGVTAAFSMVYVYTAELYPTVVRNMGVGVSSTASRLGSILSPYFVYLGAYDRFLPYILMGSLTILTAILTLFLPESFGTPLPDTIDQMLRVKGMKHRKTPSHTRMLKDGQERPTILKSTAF

[1] = humans, oral; cited from earlier work
human OCTN1 = target: T2, human OCTN1 (Homo sapiens, UniProt Q9H015); experiment: Hydroxyurea uptake in HEK293 cells overexpressing hOCTN1; type: cell-based; conditions: percentage of control cells (100%)
T2 sequence (Q9H015 1-551): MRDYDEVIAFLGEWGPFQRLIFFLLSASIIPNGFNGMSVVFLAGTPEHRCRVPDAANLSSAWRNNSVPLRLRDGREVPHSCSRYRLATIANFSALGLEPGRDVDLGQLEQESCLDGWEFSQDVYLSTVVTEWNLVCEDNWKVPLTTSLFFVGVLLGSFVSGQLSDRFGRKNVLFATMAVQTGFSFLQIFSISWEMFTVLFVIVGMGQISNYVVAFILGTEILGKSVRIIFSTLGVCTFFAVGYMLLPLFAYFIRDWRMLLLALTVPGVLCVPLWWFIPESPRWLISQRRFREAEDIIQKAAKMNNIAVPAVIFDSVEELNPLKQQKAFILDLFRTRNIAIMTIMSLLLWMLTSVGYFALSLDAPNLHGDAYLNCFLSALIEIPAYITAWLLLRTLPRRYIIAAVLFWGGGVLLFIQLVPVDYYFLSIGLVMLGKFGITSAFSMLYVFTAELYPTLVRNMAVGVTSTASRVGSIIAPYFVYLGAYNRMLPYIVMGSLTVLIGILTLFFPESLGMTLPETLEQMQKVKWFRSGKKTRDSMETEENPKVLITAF

[2] = PAMPA
hOATP1B3 = target: T3, hOATP1B3 (Homo sapiens, UniProt Q9NPD5); experiment: Inhibition of OATP1B3-mediated hydroxyurea accumulation in oocytes; type: cell-based; conditions: for Hydroxyurea accumulation in OATP1B3 oocytes, % of accumulation without inhibitor: 1mM inhibitor co-incubation, in 1% DMSO
T3 sequence (Q9NPD5 1-702): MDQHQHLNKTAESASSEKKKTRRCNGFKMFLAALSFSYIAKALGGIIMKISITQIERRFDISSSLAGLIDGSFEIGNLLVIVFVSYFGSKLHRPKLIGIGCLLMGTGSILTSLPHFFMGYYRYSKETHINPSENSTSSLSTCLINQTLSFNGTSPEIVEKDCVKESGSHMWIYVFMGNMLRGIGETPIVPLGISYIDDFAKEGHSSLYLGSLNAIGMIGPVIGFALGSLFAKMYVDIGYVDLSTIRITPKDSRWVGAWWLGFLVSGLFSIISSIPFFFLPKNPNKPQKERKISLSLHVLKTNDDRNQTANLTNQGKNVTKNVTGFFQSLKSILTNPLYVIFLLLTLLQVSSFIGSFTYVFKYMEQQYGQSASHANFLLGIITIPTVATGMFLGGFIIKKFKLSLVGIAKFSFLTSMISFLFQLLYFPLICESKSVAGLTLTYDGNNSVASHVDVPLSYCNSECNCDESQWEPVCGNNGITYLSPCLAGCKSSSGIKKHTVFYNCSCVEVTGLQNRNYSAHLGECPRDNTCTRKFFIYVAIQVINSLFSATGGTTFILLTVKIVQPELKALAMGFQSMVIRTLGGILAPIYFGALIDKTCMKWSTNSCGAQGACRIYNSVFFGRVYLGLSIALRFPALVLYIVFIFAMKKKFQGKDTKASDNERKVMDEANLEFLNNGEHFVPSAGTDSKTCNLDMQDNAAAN

[3] = Parallel artificial membrane permeability assay; conditions: 4% lipid bilayer; 16-hours incubation at room temperature
UTB = target: T4, UTB (Homo sapiens, UniProt Q13336); experiment: Transcellular transport assay in LLC-PK1 cells overexpressing UTB; type: cell-based; conditions: 1mM dimethylurea
T4 sequence (Q13336 1-389): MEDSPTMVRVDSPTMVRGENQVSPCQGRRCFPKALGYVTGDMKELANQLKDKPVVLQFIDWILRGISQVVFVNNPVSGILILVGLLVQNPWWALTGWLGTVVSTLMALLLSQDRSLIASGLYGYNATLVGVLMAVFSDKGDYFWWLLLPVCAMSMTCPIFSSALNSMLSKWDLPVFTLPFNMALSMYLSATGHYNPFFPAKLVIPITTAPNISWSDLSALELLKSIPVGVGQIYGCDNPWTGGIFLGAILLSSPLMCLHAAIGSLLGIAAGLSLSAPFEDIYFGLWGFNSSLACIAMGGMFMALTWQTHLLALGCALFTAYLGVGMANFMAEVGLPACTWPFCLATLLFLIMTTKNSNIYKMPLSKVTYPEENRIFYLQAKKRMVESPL

For `NC(=O)NO` [hydroxyurea], the “hydroxyurea uptake compared to controls” value (human OCTN2) is listed as 113%, the Tmax [1] is listed as 1.22 h and the bioavailability [1] is listed as “nearly complete”. The “hydroxyurea uptake compared to controls” value (human OCTN1) was 130%, the “10 + logPe” value [2] was 2.597 and the “estimated permeability rate (log Pe + 10)” value [2] was 2.385.
In the case of `CN(Cc1cnc2nc(N)nc(N)c2n1)c1ccc(C(=O)N[C@@H](CCC(=O)O)C(=O)O)cc1` [methotrexate], the “lowering of hydroxyurea accumulation in OATP1B3 oocytes” value (hOATP1B3; 1mM co-incubation in the absence of DMSO) is reported as 50% and the “10 + logPe” value ([2]; 16 h) is reported as 2.022.
For `Cc1ncc2n1-c1ccc(Cl)cc1C(c1ccccc1F)=NC2` [midazolam], the “10 + logPe” value [3] was 4.707.
For `C[C@@H]1O[C@@H](O[C@H]2[C@H](Oc3cc(O)c4c(c3)O[C@H](c3ccc(O)cc3)CC4=O)O[C@H](CO)[C@@H](O)[C@@H]2O)[C@H](O)[C@H](O)[C@H]1O` [naringin], the “Hydroxyurea accumulation in OATP1B3 oocytes, % of accumulation without inhibitor” value (hOATP1B3) was 30%.
For `CO[C@H]1/C=C/O[C@@]2(C)Oc3c(C)c(O)c4c(O)c(c(/C=N/N5CCN(C)CC5)c(O)c4c3C2=O)NC(=O)/C(C)=C\C=C\[C@H](C)[C@H](O)[C@@H](C)[C@@H](O)[C@@H](C)[C@H](OC(C)=O)[C@@H]1C` [rifampin], the “Hydroxyurea accumulation in OATP1B3 oocytes, % of accumulation without inhibitor” value (hOATP1B3) was 30%.
With `NC(N)=O` [urea] the “10 + logPe” value [2] was 2.712 and the “estimated permeability rate (log Pe + 10)” value [2] was 2.335.
For dimethylurea, the “effect on hydroxyurea transport” value (UTB) was “marginally inhibited”.
